According to paper PMC10615177 (ACS infectious diseases, 2023):
Converted amounts (≈) assume the structure as drawn. Like-named read-outs stand apart in the source and are kept apart here.

What was measured:
M. tuberculosis HN878 = M. tuberculosis HN878 growth inhibition; type: cell-based, Mycobacterium tuberculosis; conditions: Mycobacterium tuberculosis; for IC50: HN878, read-out: Mtb HN878 IC50, dose-response curves; for MIC: HN878, read-out: Mtb HN878 MIC
E. coli = E. coli growth inhibition; type: cell-based, Escherichia coli
[1] = tested on: T. brucei bloodstream forms; experiment: T. brucei bloodstream form growth inhibition; type: cell-based, Trypanosoma brucei; conditions: Trypanosoma brucei, read-out: T. brucei IC50
Bacillus subtilis = experiment: B. subtilis growth inhibition; type: cell-based; conditions: Bacillus subtilis, read-out: Bs IC50
[2] = tested on: T. cruzi Dm28c intracellular amastigotes; experiment: T. cruzi intracellular amastigote inhibition; type: cell-based, Trypanosoma cruzi; conditions: Trypanosoma cruzi, U2OS, read-out: T. cruzi IC50 (PAR)
in vitro [3] = conditions: human
M. tuberculosis Erdman = M. tuberculosis Erdman growth inhibition; type: cell-based, Mycobacterium tuberculosis; conditions: Mycobacterium tuberculosis, ERDMAN, read-out: Mtb Erdman MIC
M. tuberculosis H37Rv = M. tuberculosis H37Rv growth inhibition; type: cell-based, Mycobacterium tuberculosis; conditions: Mycobacterium tuberculosis, H37RV, read-out: Mtb H37Rv MIC
M. smegmatis = M. smegmatis cell growth inhibition; type: cell-based, Mycobacterium smegmatis
[4] = tested on: L. donovani promastigotes; experiment: L. donovani promastigote growth inhibition; type: cell-based, Leishmania donovani; conditions: Leishmania donovani, read-out: L. donovani IC50
[5] = tested on: T. cruzi Dm28c epimastigotes; experiment: T. cruzi epimastigote growth inhibition; type: cell-based, Trypanosoma cruzi; conditions: Trypanosoma cruzi, read-out: T. cruzi IC50 (EPI)
[6] = biological target: M. tuberculosis MmpL3 (MtMmpL3) (Mycobacterium tuberculosis, UniProt P9WJV5); experiment: Surface plasmon resonance binding to MmpL3
Chain of M. tuberculosis MmpL3 (MtMmpL3) (P9WJV5 whole entry): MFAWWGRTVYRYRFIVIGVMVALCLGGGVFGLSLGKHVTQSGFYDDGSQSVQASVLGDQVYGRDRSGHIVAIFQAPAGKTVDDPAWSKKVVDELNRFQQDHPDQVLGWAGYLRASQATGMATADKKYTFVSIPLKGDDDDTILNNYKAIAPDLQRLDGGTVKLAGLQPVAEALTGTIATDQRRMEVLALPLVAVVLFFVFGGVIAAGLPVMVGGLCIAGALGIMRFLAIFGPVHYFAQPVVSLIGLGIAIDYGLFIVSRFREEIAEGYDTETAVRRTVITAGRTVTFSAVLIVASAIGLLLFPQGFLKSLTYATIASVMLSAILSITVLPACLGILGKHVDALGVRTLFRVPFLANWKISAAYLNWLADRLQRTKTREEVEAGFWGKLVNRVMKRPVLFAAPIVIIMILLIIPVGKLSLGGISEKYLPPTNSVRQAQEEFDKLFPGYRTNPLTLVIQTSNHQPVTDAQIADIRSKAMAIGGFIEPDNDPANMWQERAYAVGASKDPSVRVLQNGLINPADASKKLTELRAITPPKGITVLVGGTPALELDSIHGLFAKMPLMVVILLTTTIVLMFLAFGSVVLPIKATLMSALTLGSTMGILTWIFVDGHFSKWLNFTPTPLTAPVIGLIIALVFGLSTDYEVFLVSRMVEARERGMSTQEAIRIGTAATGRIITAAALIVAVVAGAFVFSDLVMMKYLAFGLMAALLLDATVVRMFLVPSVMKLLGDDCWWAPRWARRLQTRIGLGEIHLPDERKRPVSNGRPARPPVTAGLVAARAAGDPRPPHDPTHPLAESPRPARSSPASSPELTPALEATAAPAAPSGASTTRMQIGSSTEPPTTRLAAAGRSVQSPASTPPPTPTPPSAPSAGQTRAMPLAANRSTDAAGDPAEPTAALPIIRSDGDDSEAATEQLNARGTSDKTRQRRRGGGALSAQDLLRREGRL

[7] = tested on: M. abscessus rough variant; experiment: microbe, parasite or virus in culture; type: cell-based
[8] = tested on: M. abscessus smooth variant; experiment: microbe, parasite or virus in culture; type: cell-based
[9] = tested on: L. mexicana promastigotes; experiment: L. mexicana promastigote growth inhibition; type: cell-based, Leishmania mexicana; conditions: Leishmania mexicana, read-out: L. mexicana IC50, promastigotes
in vitro [10] = conditions: human; remark: listed apart in the source
[11] = tested on: Plasmodium falciparum asexual blood stages; experiment: P. falciparum asexual blood stage; type: cell-based; conditions: Plasmodium falciparum, read-out: PfABS IC50 (μM ± S.E.), asexual blood stages
[12] = Mycolicibacterium smegmatis, read-out: Ms IC50, M. smegmatis
[13] = KD, 1:1 model, 1:1 binding model, from ratio of rate constants
[14] = KD, 2-state, two-state model, from rate constants

| Compound | IC50 (M. tuberculosis HN878) | MIC (M. tuberculosis HN878) | Ec IC50 (E. coli) | IC50 [1] | IC50 (Bacillus subtilis) | IC50 [2] | CC50 (in vitro [3]) | MIC (M. tuberculosis Erdman) | MIC (M. tuberculosis H37Rv) | IC50 (M. smegmatis; [12]) | IC50 [4] | IC50 [5] | ka1 ([6]; two-state model) | ka2 ([6]; two-state model) | kd1 ([6]; two-state model) | kd2 ([6]; two-state model) | IC50 [9] | viability at 20 µM (in vitro [10]) | IC50 [11] | further results |
| --- | --- | --- | --- | --- | --- | --- | --- | --- | --- | --- | --- | --- | --- | --- | --- | --- | --- | --- | --- | --- |
| CCC1(NC(=O)CNCC=C(C)CCC=C(C)C)C2CC3CC(C2)CC1C3 (stereo not shown) [Compound 7c, 2-((3,7-Dimethylocta-2,6-dien-1-yl)amino)-N-(2-ethyladamantan-2-yl)acetamide] | 6.6 ± 0.2 µM | 6.25 µM (≈ 2.33 µg/mL) | No inhibition | 3.9 ± 0.3 µM | 1.9 µM | 3.2 ± 0.2 µM | 7.5 ± 0.6 µM | 16 µM (≈ 5.96 µg/mL) | 16 µM (≈ 5.96 µg/mL) | 7.7 µM | 44 ± 11 µM | 14 ± 0.04 µM | – | – | – | – | – | – | – | – |
| CCCCC1(NC(=O)CNCC=C(C)CCC=C(C)C)C2CC3CC(C2)CC1C3 (stereo not shown) [Compound 7e, 2-((3,7-Dimethylocta-2,6-dien-1-yl)amino)-N-(2-butyladamantan-2-yl)acetamide] | 13 ± 0.3 µM | 12.5 µM (≈ 5.01 µg/mL) | No inhibition | 3 ± 0.2 µM | 2.8 µM | 8.8 ± 1.3 µM | 15 ± 0.5 µM | 15 µM (≈ 6.01 µg/mL) | 15 µM (≈ 6.01 µg/mL) | 17 µM | 25 ± 14 µM | 48 ± 0.07 µM | – | – | – | – | – | – | – | – |
| CC(C)=CCCC(C)=CCNCC(=O)NC1(Cc2ccccc2)C2CC3CC(C2)CC1C3 (stereo not shown) [Compound 7g, 2-((3,7-Dimethylocta-2,6-dien-1-yl)amino)-N-(2-benzyladamantan-2-yl)acetamide] | – | – | No inhibition | 5.6 ± 1 µM | 2.3 µM | 2.9 ± 0.3 µM | 7 ± 0.2 µM | 29 µM (≈ 12.6 µg/mL) | 29 µM (≈ 12.6 µg/mL) | 17 µM | 27 ± 0.8 µM | 17 ± 4 µM | – | – | – | – | – | – | – | – |
| CC(C)=CCCC(C)=CCNCC(=O)NC1(c2ccccc2)C2CC3CC(C2)CC1C3 (stereo not shown) [Compound 7h, 2-((3,7-Dimethylocta-2,6-dien-1-yl)amino)-N-(2-phenyladamantan-2-yl)acetamide] | – | – | No inhibition | 4.1 ± 0.6 µM | 4.5 µM | 3.4 ± 0.2 µM | 7 ± 0.4 µM | 38 µM (≈ 16 µg/mL) | 38 µM (≈ 16 µg/mL) | 26 µM | 26 ± 28 µM | 18 ± 2 µM | – | – | – | – | – | – | – | – |
| CC(C)=CCCC(C)=CCNCCNC1(c2ncc(-c3ccccc3)s2)C2CC3CC(C2)CC1C3 (stereo not shown) [Compound 8i, N-(3,7-dimethylocta-2,6-dien-1-yl)-N´-(2-(5-phenylthiazol-2-yl)adamantan-2-yl)ethane-1,2-diamine] | – | – | – | – | – | – | – | – | – | – | – | – | 3946 M⁻¹ s⁻¹ | 0.006253 s⁻¹ | 0.434 s⁻¹ | 0.03057 s⁻¹ | – | – | – | koff ([6]; 1:1 Langmuir binding model): 0.4902 s⁻¹; Kd ([6]; read-out: KD, 1:1 model, 1:1 binding model, from ratio of rate constants): 87 µM; Kd ([6]; read-out: KD, 2-state, two-state model, from rate constants): 91 µM; Ma(R) MIC [7]: 21.5 µM; IC50 (M. smegmatis; read-out: Ms IC50, M. smegmatis): 21 µM; Ma(S) MIC [8]: 21.5 µM |
| CC(C)=CCCC(C)=CCNCC(=O)NC(C)(C)C12CC3CC(CC(C3)C1)C2 [Compound 11, N-(2-(adamantan-1-yl)propan-2-yl)-2-((3,7-dimethylocta-2,6-dien-1-yl)amino)acetamide] | 13 ± 2 µM | 12.5 µM (≈ 4.83 µg/mL) | No inhibition | 6.2 ± 0.2 µM | – | 4.4 ± 0.3 µM | 6.9 ± 0.1 µM | 19 µM (≈ 7.35 µg/mL) | 19 µM (≈ 7.35 µg/mL) | 44 ± 4 µM | 5 ± 0.6 µM | 16 ± 4 µM | – | – | – | – | 5.2 ± 0.2 µM | 100% | 7.63 ± 1.13 µM | – |
| CC(C)=CCCC(C)=CCNC(=O)CNC1(C)C2CC3CC(C2)CC1C3 (stereo not shown) [Compound 14b, N-(3,7-dimethylocta-2,6-dien-1-yl)-2-((2-methyl-2-adamantanyl)amino)acetamide] | 4.9 ± 0.1 µM | 6.25 µM (≈ 2.24 µg/mL) | No inhibition | 6.6 ± 0.03 µM | – | 2.3 ± 0.2 µM | 7.2 ± 0.9 µM | 20 µM (≈ 7.17 µg/mL) | 30 µM (≈ 10.8 µg/mL) | 9 µM | 11 ± 0.9 µM | 18 ± 4 µM | 1917 M⁻¹ s⁻¹ | 0.009268 s⁻¹ | 1.363 s⁻¹ | 0.02741 s⁻¹ | 2.4 ± 0.7 µM | 94% | 6.47 ± 0.65 µM | koff [6]: 0.751 s⁻¹; kon [6]: 1760 M⁻¹ s⁻¹; Kd [6, 13]: 426 µM; Kd [6, 14]: 531 µM |
| CCCC1(NCC(=O)NCC=C(C)CCC=C(C)C)C2CC3CC(C2)CC1C3 (stereo not shown) [Compound 14d, N-(3,7-dimethylocta-2,6-dien-1-yl)-2-((2-propyladamantan-2-yl)amino)acetamide] | > 25 µM | 25 µM (≈ 9.67 µg/mL) | No inhibition | 2.3 ± 0.1 µM | – | 2.8 ± 0.3 µM | 9.1 ± 0.4 µM | 32 µM (≈ 12.4 µg/mL) | 32 µM (≈ 12.4 µg/mL) | 49 ± 5 µM | 8.4 ± 2 µM | 14 ± 5 µM | 3277 M⁻¹ s⁻¹ | 0.005907 s⁻¹ | 1.04 s⁻¹ | 0.03103 s⁻¹ | 0.73 ± 0.2 µM | 100% | 5.27 ± 0.41 µM | koff [6]: 0.754 s⁻¹; kon [6]: 3000 M⁻¹ s⁻¹; Kd [6, 13]: 252 µM; Kd [6, 14]: 267 µM |
| CC(C)=CCCC(C)=CCNC(=O)CNC(C)(C)C12CC3CC(CC(C3)C1)C2 [Compound 15, 2-((2-(Adamantan-1-yl)propan-2-yl)amino)-N-(3,7-dimethylocta-2,6-dien-1-yl)acetamide] | 17 ± 6 µM | 12.5 µM (≈ 4.83 µg/mL) | No inhibition | 5.9 ± 0.1 µM | – | 2.6 ± 0.1 µM | 7.1 ± 0.5 µM | 38 µM (≈ 14.7 µg/mL) | 38 µM (≈ 14.7 µg/mL) | 31 ± 3 µM | 12 ± 8 µM | 15 ± 3 µM | – | – | – | – | 5 ± 0.1 µM | 76% | 5.44 ± 0.32 µM | viability at 2 µM (in vitro [10]): 91% |
